# Assay results from ChEMBL document CHEMBL3046155, “Synthesis and antimicrobial activity of 7-alkoxyhesperetin derivatives” (2011).
# Active and inactive are the calls of the source. The rule behind the calls is not given here.
# Experiments:
# Type in all cases: functional
# [1] = tested on: Proteus vulgaris; assay: Antibacterial activity against Proteus vulgaris ATCC 14153 after 24 hr by two-fold serial dilution test; conditions: ATCC 14153, 24 h
# [2] = tested on: Bacillus subtilis; assay: Antibacterial activity against Bacillus subtilis ATCC 9372 after 24 hr by two-fold serial dilution test; conditions: ATCC 9372, 24 h
# [3] = tested on: Staphylococcus aureus; assay: Antibacterial activity against Staphylococcus aureus ATCC 25923 after 24 hr by two-fold serial dilution test; conditions: ATCC 25923, 24 h
# [4] = tested on: Escherichia coli; assay: Antibacterial activity against Escherichia coli ATCC 25922 after 24 hr by two-fold serial dilution test; conditions: ATCC 25922, 24 h
# [5] = tested on: Staphylococcus aureus; assay: Antibacterial activity against Staphylococcus aureus ATCC 25923 at 400 ug/mL after 24 hr by agar well diffusion assay
# [6] = tested on: Escherichia coli; assay: Antibacterial activity against Escherichia coli ATCC 25922 at 400 ug/mL after 24 hr by agar well diffusion assay
# [7] = tested on: Bacillus subtilis; assay: Antibacterial activity against Bacillus subtilis ATCC 9372 at 400 ug/mL after 24 hr by agar well diffusion assay
MIC [1],MIC [2],MIC [3],MIC [4],Structure (SMILES),diameter of the inhibition zone (DIZ) [5],diameter of the inhibition zone (DIZ) [6],diameter of the inhibition zone (DIZ) [7]
12.5 µg/mL,50 µg/mL,6.25 µg/mL,50 µg/mL,CCCCCCCCCCCCOc1cc(O)c2c(c1)O[C@H](c1ccc(OC)c(O)c1)CC2=O [7-DODECYLOXYHESPERETIN],,,
50 µg/mL,200 µg/mL,100 µg/mL,200 µg/mL,COc1cc(O)c2c(c1)O[C@H](c1ccc(OC)c(O)c1)CC2=O [7-METHOXYHESPERETIN],,,
100 µg/mL,200 µg/mL,,,COc1ccc([C@@H]2CC(=O)c3c(O)cc(O)cc3O2)cc1O [HESPERETIN],inactive,inactive,
200 µg/mL,,,,COc1ccc([C@@H]2CC(=O)c3c(O)cc(O[C@@H]4O[C@H](CO[C@@H]5O[C@@H](C)[C@H](O)[C@@H](O)[C@H]5O)[C@@H](O)[C@H](O)[C@H]4O)cc3O2)cc1O [HESPERIDIN],inactive,inactive,inactive
3.13 µg/mL,50 µg/mL,25 µg/mL,1.56 µg/mL,CN[C@@H]1[C@H](O[C@H]2[C@H](O[C@H]3[C@H](O)[C@@H](O)[C@H](N=C(N)N)[C@@H](O)[C@@H]3N=C(N)N)O[C@@H](C)[C@]2(O)C=O)O[C@@H](CO)[C@H](O)[C@H]1O.CN[C@@H]1[C@H](O[C@H]2[C@H](O[C@H]3[C@H](O)[C@@H](O)[C@H](N=C(N)N)[C@@H](O)[C@@H]3N=C(N)N)O[C@@H](C)[C@]2(O)C=O)O[C@@H](CO)[C@H](O)[C@H]1O.O=S(=O)(O)O.O=S(=O)(O)O.O=S(=O)(O)O [STREPTOMYCIN SULFATE],,,

Structure (SMILES),MIC [1],MIC [2],MIC [3],MIC [4],diameter of the inhibition zone (DIZ) [5],diameter of the inhibition zone (DIZ) [6],diameter of the inhibition zone (DIZ) [7]
CCCCOc1cc(O)c2c(c1)O[C@H](c1ccc(OC)c(O)c1)CC2=O [7-BUTOXYHESPERETIN],50 µg/mL,100 µg/mL,25 µg/mL,100 µg/mL,,,
CCCCCCCCOc1cc(O)c2c(c1)O[C@H](c1ccc(OC)c(O)c1)CC2=O [7-OCTOXYHESPERETIN],25 µg/mL,50 µg/mL,12.5 µg/mL,25 µg/mL,,,
